How the values were obtained:
[1] = biological target: Non-receptor tyrosine-protein kinase TNK1 (Homo sapiens) (UniProt Q13470); settings: Compound concentration 1000.0 nM
[2] = biological target: Myosin light chain kinase (Homo sapiens) (UniProt Q32MK0); settings: Compound concentration 1000.0 nM
[3] = biological target: Casein kinase II subunit alpha (Homo sapiens) (UniProt P68400); settings: Compound concentration 1000.0 nM
[4] = biological target: Fibroblast growth factor receptor 3 (Homo sapiens) (UniProt P22607); settings: Compound concentration 1000.0 nM
[5] = biological target: Serine/threonine-protein kinase RIO1 (Homo sapiens) (UniProt Q9BRS2); settings: Compound concentration 1000.0 nM
[6] = biological target: Ephrin type-A receptor 5 (Homo sapiens) (UniProt P54756); settings: Compound concentration 1000.0 nM
[7] = tested on: Hepatocyte growth factor receptor (Homo sapiens), P08581 [M1250T]; settings: Compound concentration 1000.0 nM
[8] = biological target: Inhibitor of nuclear factor kappa-B kinase subunit alpha (Homo sapiens) (UniProt O15111); settings: Compound concentration 1000.0 nM
[9] = biological target: Ribosomal protein S6 kinase alpha-3 (Homo sapiens) (UniProt P51812); settings: Compound concentration 1000.0 nM
[10] = biological target: Citron Rho-interacting kinase (Homo sapiens) (UniProt O14578); settings: Compound concentration 1000.0 nM
Chain of Citron Rho-interacting kinase (Homo sapiens) (O14578 whole entry): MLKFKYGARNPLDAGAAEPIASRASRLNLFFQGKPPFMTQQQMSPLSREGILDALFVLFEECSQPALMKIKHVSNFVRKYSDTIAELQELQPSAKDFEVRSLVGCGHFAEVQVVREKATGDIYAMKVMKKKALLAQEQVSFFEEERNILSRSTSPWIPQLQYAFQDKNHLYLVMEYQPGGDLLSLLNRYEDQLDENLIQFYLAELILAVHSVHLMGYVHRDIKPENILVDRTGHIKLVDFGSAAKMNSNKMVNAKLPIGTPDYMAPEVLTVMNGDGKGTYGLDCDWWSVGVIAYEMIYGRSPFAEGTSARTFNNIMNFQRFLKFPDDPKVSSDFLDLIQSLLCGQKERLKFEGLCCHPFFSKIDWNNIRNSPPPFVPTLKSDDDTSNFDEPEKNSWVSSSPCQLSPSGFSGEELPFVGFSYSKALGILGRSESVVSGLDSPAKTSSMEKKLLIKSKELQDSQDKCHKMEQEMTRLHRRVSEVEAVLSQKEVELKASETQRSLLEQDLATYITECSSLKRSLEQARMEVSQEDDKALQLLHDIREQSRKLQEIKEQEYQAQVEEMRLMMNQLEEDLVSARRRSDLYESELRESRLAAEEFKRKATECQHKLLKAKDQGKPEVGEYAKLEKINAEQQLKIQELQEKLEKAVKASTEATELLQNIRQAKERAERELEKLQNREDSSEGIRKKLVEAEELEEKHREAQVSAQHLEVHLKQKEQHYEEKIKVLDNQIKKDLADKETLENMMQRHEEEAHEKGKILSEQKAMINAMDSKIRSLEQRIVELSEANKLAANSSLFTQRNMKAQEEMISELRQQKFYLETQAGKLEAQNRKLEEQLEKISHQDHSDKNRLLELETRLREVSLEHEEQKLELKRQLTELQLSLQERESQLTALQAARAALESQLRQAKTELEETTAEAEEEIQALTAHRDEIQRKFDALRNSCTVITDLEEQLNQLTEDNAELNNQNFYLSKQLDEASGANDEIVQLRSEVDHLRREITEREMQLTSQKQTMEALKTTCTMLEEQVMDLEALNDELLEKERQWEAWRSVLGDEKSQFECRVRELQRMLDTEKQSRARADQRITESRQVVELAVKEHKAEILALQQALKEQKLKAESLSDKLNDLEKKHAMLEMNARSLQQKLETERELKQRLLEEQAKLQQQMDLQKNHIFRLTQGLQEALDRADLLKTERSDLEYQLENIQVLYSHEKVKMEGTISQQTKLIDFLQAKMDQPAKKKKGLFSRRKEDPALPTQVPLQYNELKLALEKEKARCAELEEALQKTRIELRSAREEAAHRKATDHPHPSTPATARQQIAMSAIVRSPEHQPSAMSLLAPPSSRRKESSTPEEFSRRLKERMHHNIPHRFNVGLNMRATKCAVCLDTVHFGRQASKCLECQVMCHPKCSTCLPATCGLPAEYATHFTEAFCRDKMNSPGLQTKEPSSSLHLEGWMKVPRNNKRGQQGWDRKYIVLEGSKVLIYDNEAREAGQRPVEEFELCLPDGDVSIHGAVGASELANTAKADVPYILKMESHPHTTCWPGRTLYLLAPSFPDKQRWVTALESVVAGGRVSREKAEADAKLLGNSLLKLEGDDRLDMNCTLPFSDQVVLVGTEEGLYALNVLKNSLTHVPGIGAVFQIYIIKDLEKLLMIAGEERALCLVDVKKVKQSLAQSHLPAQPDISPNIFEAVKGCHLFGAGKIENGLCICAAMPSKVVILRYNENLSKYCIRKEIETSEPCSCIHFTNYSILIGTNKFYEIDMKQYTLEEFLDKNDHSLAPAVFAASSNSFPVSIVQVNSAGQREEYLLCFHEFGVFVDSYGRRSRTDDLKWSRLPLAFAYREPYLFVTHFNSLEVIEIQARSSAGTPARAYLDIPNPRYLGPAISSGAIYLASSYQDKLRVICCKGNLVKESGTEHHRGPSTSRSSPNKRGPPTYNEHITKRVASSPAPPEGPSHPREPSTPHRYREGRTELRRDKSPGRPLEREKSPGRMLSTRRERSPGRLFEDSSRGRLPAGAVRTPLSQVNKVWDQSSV

[11] = biological target: Serine/threonine-protein kinase PAK 3 (Homo sapiens) (UniProt O75914); settings: Compound concentration 1000.0 nM
[12] = tested on: Receptor-type tyrosine-protein kinase FLT3 (Homo sapiens), P36888 [R834Q]; settings: Compound concentration 1000.0 nM
[13] = biological target: MAP kinase-activated protein kinase 5 (Homo sapiens) (UniProt Q8IW41); settings: Compound concentration 1000.0 nM
[14] = biological target: Serine/threonine-protein kinase LATS2 (Homo sapiens) (UniProt Q9NRM7); settings: Compound concentration 1000.0 nM
[15] = biological target: Sodium-dependent dopamine transporter (Homo sapiens, UniProt Q01959); settings: Compound concentration 10.0 uM
Chain of Sodium-dependent dopamine transporter (Q01959 whole entry): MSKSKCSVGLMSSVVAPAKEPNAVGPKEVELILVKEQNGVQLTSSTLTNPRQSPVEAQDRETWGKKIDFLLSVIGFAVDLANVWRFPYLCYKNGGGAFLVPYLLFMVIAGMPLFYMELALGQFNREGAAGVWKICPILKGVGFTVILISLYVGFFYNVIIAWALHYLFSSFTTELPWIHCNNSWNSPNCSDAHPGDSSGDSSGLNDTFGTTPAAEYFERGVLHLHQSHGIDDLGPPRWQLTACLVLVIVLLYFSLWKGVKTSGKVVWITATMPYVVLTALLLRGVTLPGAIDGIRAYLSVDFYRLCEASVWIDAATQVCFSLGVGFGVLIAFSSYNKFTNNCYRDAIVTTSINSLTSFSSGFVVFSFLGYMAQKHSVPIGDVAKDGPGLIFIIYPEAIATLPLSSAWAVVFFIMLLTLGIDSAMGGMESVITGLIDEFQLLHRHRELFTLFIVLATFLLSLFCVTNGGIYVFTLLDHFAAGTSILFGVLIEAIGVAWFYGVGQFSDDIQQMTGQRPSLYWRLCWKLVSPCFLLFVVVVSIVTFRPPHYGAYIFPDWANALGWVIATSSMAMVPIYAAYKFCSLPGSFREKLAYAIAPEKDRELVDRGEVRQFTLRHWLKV

[16] = biological target: Mitogen-activated protein kinase kinase kinase 20 (Homo sapiens) (UniProt Q9NYL2); settings: Compound concentration 1000.0 nM
Chain of Mitogen-activated protein kinase kinase kinase 20 (Homo sapiens) (Q9NYL2 2-800 limits assumed): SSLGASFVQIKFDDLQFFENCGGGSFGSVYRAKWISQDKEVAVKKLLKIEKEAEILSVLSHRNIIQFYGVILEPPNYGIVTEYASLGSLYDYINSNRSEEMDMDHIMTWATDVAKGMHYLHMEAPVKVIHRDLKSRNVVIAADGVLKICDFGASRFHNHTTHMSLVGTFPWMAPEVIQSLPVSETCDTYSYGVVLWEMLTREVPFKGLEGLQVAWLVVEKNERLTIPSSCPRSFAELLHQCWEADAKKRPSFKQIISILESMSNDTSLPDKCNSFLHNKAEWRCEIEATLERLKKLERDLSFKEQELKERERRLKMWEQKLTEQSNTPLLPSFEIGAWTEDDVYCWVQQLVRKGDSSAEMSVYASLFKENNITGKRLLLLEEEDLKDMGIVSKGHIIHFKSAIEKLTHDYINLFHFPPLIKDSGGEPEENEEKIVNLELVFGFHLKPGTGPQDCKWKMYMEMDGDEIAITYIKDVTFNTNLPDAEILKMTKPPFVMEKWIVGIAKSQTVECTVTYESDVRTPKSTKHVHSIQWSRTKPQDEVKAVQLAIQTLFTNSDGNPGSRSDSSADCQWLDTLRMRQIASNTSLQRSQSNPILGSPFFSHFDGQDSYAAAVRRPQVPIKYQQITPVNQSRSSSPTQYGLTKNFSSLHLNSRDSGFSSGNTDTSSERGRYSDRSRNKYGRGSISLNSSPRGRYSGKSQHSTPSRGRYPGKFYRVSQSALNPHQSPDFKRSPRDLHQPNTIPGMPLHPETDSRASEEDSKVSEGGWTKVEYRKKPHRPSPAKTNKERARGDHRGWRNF

[17] = biological target: Phosphatidylinositol 4,5-bisphosphate 3-kinase catalytic subunit alpha isoform (Homo sapiens) (UniProt P42336); settings: Compound concentration 1000.0 nM
[18] = biological target: Serine/threonine-protein kinase ICK (Homo sapiens) (UniProt Q9UPZ9); settings: Compound concentration 1000.0 nM
[19] = biological target: Serine/threonine-protein kinase NIM1 (Homo sapiens) (UniProt Q8IY84); settings: Compound concentration 1000.0 nM
[20] = biological target: Tyrosine-protein kinase FRK (Homo sapiens) (UniProt P42685); settings: Compound concentration 1000.0 nM
[21] = biological target: Serine/threonine-protein kinase Nek1 (Homo sapiens) (UniProt Q96PY6); settings: Compound concentration 1000.0 nM
[22] = biological target: Myosin-IIIa (Homo sapiens) (UniProt Q8NEV4); settings: Compound concentration 1000.0 nM
[23] = biological target: Ephrin type-A receptor 3 (Homo sapiens) (UniProt P29320); settings: Compound concentration 1000.0 nM
[24] = tested on: Tyrosine-protein kinase ABL1 (Homo sapiens), P00519 [Q252H]; settings: Compound concentration 1000.0 nM
[25] = biological target: AP2-associated protein kinase 1 (Homo sapiens) (UniProt Q2M2I8); settings: Compound concentration 1000.0 nM
[26] = biological target: Calcium/calmodulin-dependent protein kinase type 1B (Homo sapiens) (UniProt Q6P2M8); settings: Compound concentration 1000.0 nM
[27] = biological target: Dual serine/threonine and tyrosine protein kinase (Homo sapiens) (UniProt Q6XUX3); settings: Compound concentration 1000.0 nM
[28] = biological target: Protein kinase C delta type (Homo sapiens) (UniProt Q05655); settings: Compound concentration 1000.0 nM
[29] = biological target: Protein-tyrosine kinase 2-beta (Homo sapiens) (UniProt Q14289); settings: Compound concentration 1000.0 nM
[30] = biological target: Ribosomal protein S6 kinase alpha-1 (Homo sapiens) (UniProt Q15418); settings: Compound concentration 1000.0 nM
[31] = biological target: Serine/threonine-protein kinase tousled-like 2 (Homo sapiens) (UniProt Q86UE8); settings: Compound concentration 1000.0 nM
[32] = biological target: Muscarinic acetylcholine receptor M1 (Homo sapiens) (UniProt P11229); settings: Compound concentration 10.0 uM
[33] = biological target: Serine/threonine-protein kinase 4 (Homo sapiens) (UniProt Q13043); settings: Compound concentration 1000.0 nM
[34] = tested on: Receptor-type tyrosine-protein kinase FLT3 (Homo sapiens), P36888 [K663Q]; settings: Compound concentration 1000.0 nM
[35] = biological target: Mitogen-activated protein kinase kinase kinase 15 (Homo sapiens) (UniProt Q6ZN16); settings: Compound concentration 1000.0 nM
[36] = biological target: Fibroblast growth factor receptor 4 (Homo sapiens) (UniProt P22455); settings: Compound concentration 1000.0 nM
[37] = tested on: Epidermal growth factor receptor (Homo sapiens), P00533 [L858R]; settings: Compound concentration 1000.0 nM
[38] = biological target: Aurora kinase A (Homo sapiens) (UniProt O14965); settings: Compound concentration 1000.0 nM
[39] = biological target: Alpha-2A adrenergic receptor (Homo sapiens) (UniProt P08913); settings: Compound concentration 10.0 uM
[40] = biological target: Tyrosine-protein kinase ABL2 (Homo sapiens) (UniProt P42684); settings: Compound concentration 1000.0 nM
[41] = biological target: MAP/microtubule affinity-regulating kinase 3 (Homo sapiens) (UniProt P27448); settings: Compound concentration 1000.0 nM
[42] = biological target: Calcium/calmodulin-dependent protein kinase kinase 1 (Homo sapiens) (UniProt Q8N5S9); settings: Compound concentration 1000.0 nM
[43] = biological target: Tyrosine-protein kinase JAK3 (Homo sapiens) (UniProt P52333); settings: Compound concentration 1000.0 nM
Chain of Tyrosine-protein kinase JAK3 (Homo sapiens) (P52333 whole entry): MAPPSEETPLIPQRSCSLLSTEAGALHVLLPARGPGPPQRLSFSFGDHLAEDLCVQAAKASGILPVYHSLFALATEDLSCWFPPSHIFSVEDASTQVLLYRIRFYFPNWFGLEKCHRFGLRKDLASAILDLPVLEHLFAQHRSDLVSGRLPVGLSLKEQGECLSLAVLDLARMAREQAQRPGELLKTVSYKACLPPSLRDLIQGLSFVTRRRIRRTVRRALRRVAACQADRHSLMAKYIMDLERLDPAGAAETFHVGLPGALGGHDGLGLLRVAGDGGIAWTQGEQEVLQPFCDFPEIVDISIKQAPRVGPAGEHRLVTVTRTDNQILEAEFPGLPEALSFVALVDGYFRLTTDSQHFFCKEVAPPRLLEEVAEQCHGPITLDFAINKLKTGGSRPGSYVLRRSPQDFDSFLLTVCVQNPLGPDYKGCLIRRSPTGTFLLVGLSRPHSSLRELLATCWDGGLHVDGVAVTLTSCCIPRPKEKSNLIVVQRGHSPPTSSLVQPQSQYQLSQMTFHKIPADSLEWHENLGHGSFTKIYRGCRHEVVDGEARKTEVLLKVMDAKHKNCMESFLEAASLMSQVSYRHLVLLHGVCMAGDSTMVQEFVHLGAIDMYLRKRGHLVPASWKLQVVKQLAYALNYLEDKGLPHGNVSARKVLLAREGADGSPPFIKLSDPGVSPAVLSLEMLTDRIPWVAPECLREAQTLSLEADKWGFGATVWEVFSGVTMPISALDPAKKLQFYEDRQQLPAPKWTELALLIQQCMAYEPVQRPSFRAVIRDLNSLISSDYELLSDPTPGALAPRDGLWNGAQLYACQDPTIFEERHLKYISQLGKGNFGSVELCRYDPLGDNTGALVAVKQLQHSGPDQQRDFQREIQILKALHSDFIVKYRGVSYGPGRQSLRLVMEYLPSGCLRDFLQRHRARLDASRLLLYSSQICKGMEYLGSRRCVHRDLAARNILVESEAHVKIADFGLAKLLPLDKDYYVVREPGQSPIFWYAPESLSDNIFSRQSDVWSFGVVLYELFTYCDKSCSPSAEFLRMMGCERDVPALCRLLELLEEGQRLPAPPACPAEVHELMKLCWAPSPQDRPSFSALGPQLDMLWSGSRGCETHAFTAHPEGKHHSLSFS

[44] = tested on: Receptor-type tyrosine-protein kinase FLT3 (Homo sapiens), P36888 [UNDEFINED MUTATION]; settings: Compound concentration 1000.0 nM
[45] = biological target: Nociceptin receptor (Homo sapiens, UniProt P41146); assay: GPCRScan assay: inhibition of NOP; set-up: radioligand conc. used [nm] 0.5 – 2.0, parental cells HEKT
Chain of Nociceptin receptor (P41146 whole entry): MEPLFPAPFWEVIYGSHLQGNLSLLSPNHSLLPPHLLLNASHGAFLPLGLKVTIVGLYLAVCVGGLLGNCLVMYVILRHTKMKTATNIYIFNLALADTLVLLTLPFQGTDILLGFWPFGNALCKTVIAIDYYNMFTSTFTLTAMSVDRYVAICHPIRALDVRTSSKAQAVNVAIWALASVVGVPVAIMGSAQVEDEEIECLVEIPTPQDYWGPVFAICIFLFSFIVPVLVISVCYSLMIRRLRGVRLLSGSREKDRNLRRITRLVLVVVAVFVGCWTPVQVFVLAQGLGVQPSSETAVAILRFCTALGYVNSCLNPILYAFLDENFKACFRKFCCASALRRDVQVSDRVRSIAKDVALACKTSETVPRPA

CC(=O)c1c(NS(C)(=O)=O)c2cc(-c3ccc(Cl)cc3)c(-c3ccc(Cl)cc3Cl)nc2n(C)c1=O [MRL-CB1-NC]
residual activity [1]: 100%
residual activity [2]: 91%
residual activity [3]: 92%
residual activity [4]: 100%
residual activity [5]: 100%
residual activity [6]: 100%
residual activity [7]: 90%
residual activity [8]: 100%
residual activity [9]: 75%
residual activity [10]: 96%
residual activity [11]: 100%
residual activity [12]: 100%
residual activity [13]: 89%
residual activity [14]: 78%
inhibition [15]: 67.1%
residual activity [16]: 92%
residual activity [17]: 100%
residual activity [18]: 77%
residual activity [19]: 81%
residual activity [20]: 100%
residual activity [21]: 100%
residual activity [22]: 88%
residual activity [23]: 92%
residual activity [24]: 100%
residual activity [25]: 100%
residual activity [26]: 100%
residual activity [27]: 100%
residual activity [28]: 98%
residual activity [29]: 100%
residual activity [30]: 88%
residual activity [31]: 99%
inhibition [32]: 3.28%
residual activity [33]: 100%
residual activity [34]: 100%
residual activity [35]: 91%
residual activity [36]: 100%
residual activity [37]: 98%
residual activity [38]: 87%
inhibition [39]: 19.8%
residual activity [40]: 100%
residual activity [41]: 100%
residual activity [42]: 100%
residual activity [43]: 100%
residual activity [44]: 94%
inhibition ([45]; Compound concentration 10.0 uM): -2.4%

CC(=O)Nc1c(C(C)=O)c(=O)n(C)c2nc(-c3ccc(Cl)cc3Cl)c(-c3ccc(Cl)cc3)cc12 [NAPHTHYRIDINONE]
residual activity [1]: 100%
residual activity [2]: 100%
residual activity [3]: 100%
residual activity [4]: 100%
residual activity [5]: 100%
residual activity [6]: 100%
residual activity [7]: 100%
residual activity [8]: 100%
residual activity [9]: 90%
residual activity [10]: 100%
residual activity [11]: 100%
residual activity [12]: 100%
residual activity [13]: 100%
residual activity [14]: 100%
inhibition [15]: 36.4%
residual activity [16]: 100%
residual activity [17]: 100%
residual activity [18]: 100%
residual activity [19]: 100%
residual activity [20]: 100%
residual activity [21]: 100%
residual activity [22]: 100%
residual activity [23]: 100%
residual activity [24]: 100%
residual activity [25]: 100%
residual activity [26]: 100%
residual activity [27]: 100%
residual activity [28]: 100%
residual activity [29]: 100%
residual activity [30]: 100%
residual activity [31]: 100%
inhibition [32]: -3.7%
residual activity [33]: 100%
residual activity [34]: 100%
residual activity [35]: 100%
residual activity [36]: 100%
residual activity [37]: 100%
residual activity [38]: 100%
inhibition [39]: 1.31%
residual activity [40]: 100%
residual activity [41]: 100%
residual activity [42]: 100%
residual activity [43]: 100%
residual activity [44]: 100%
Ki [45]: 10 µM
pKi [45]: 5

Reference: ChEMBL document CHEMBL4507287, “Data for DCP probe MRL-650” (2021)
